{
  "source": "patent US20090203877A1",
  "about": "“X-RAY-DENSE CONJUGATE” (Eberhard-Karls-Universitaet Tuebingen Universitaetsklinkum, priority 2006, published 2009)",
  "key": {"[1]": {"test": "Solubility", "type": "physicochemical", "settings": "260 μM"}, "[2]": {"settings": "cited from earlier work"}, "[3]": {"test_system": "human malignant U373 glioma cells", "test": "Computer tomography, signal density of cell pellets", "type": "cell-based", "settings": "260 μM, 20 min", "procedure": "For CT and FACS human U373 glioma cells were grown under the same conditions in 75 cm^2 culture flasks (Corning Costar, Bodenheim, Germany) (70% confluency). Accutase™ (PAA laboratories, Pasching, Austria) was added to achieve detachment of the cells which were harvested and subsequently aliquoted into Eppendorf tubes (6×10^6 cells per tube). As in the investigations performed by fluorescence microscopy, the cells in the first tube served as a control (PBS only). The cells in the other tubes were incubated with 260 μM Ultravist, 260 μM TIBA in PBS and 26 μM, 260 μM and 2.6 mM conjugates 1-4 in PBS. After a 20 minute incubation period at 37° C. in an atmosphere of 5% CO2, the cells were washed three times in PBS and centrifuged at 800 rpm for 5 minutes.\nThe inner ear spiral CT protocol consisted of: tube voltage 120 KV, effective mAs 550, time of imaging TI: 1.5, SL 0.75/0.75/4.5, FOV: 50 0/52, kernel: U70, window: intervertebral disc.\n3D-images were obtained using InSpace Software (Syngo CT 2006G) (Siemens AG, Erlangen, Germany).\nAfter an incubation of 20 minutes at 37° C./5% CO2 the cells were washed three times with PBS buffer and centrifuged at 800 rpm (rounds per minute) for 5 minutes. The fluorescence was measured in Becton Dickinson FACSCalibur as described under 1.4. The computer tomography was performed as described under 1.5.1. The examinations were repeated two times. […]\nAn Orbita CT spiral was used: tube voltage 120 KV, effective mAs 550, time of imaging TI: 1.5, SL 0.75/0.75/4.5, FOV: 50 0/52, GT: 0.0, kernel: U70, window: intervertebral disc. 3D images were made with the InSpace Software (Syngo CT 2006G) (Siemens AG, Erlangen, Germany). […]"}, "[4]": {"test_system": "human malignant U373 glioma cells", "test": "Cell viability / cell death (MTT test, propidium iodide, annexin-V-Alexa 568 binding, FACS scatter morphology)", "settings": "260 μM in 0.1% DMSO/PBS, 20 min, substance alone", "procedure": "Human malignant U373-glioma cells were grown to 70% confluency in RPMI-1640 Ready Mix Medium containing L-Glutamine and 10% FBS-Gold (PAA laboratories, Pasching, Austria) at 37° C., 5% CO2 (vol/vol), in 4-well-plates (NUNC, Wiesbaden, Germany) with about 300,000 cells pro well. […] After this, the cells were washed three times with buffer and then incubated with Ready Mix Medium again. Cell viability was then assessed by the addition of methyl-thiazoyl-tetrazolium (MTT) salt (Sigma-Aldrich, Germany) at a concentration of 15 mg/ml. After 20 minutes, the production of formazan was investigated. When blue formazan granules were detected, propidium iodine (PI) was added to the medium (1 μM PI; Molecular Probes, Eugene, Oreg., USA) to detect cells with damaged cell membranes. […] Pictures were taken with a 3-CCD color video camera (MC3254P, Sony, Japan) and the Axiovision Software (Carl Zeiss, Jena, Germany). The intensity of cell fluorescence was recorded at the exposure time necessary for the production of the fluorescence images.\nAfter imaging, Accutase™ (PAA laboratories, Pasching, Austria) was added to the wells to achieve detachment of the cells for further FACS analysis. Fluorescence was measured in a Becton Dickinson FACSCalibur. A total of 20,000 events per sample were analyzed. The investigations were performed in triplicate.\nA sample of cells from each Eppendorf tube was subjected to the MTT test (described under 1.4) to determine microscopically whether the cells were viable. In vitro CT of the cell pellets was performed with a Somatom Sensation 16 (Siemens) which is used for routine clinical investigations.\nCells were incubated for 20 minutes with each of the conjugates dissolved in 0.1% DMSO/PBS at 260 μm. The cells were also incubated with TIBA and both of the non-TIBA-containing conjugates (3 and 4) separately in 0.1% DMSO/OBS at 260 μm. Both TIBA and the conjugates were dissolved in 0.1% DMSO/PBS at 260 μm for incubation due to the insolubility of TIBA (but not the conjugates) in pure PBS. As controls, the cells were incubated with PBS alone, 0.1% DMSO/PBS alone, and TIBA alone (260 μm in 0.1% DMSO/PBS).\nThe detection of phosphatidyl serine in the outer membrane leaflet of apoptotic cells was performed with the Annexin-V-Alexa™-568-reagent according to manufacturer's protocol (Roche Molecular Biochemicals, Indianapolis, USA). The confocal laser-scanning microscopy was performed on an inverted LSM 510 laser-scanning microscope (Carl Zeiss, Jena, Germany) (objectives: LD Achroplan 40×0.6, Plan Neofluar 20×0.50, 40×0.75). For fluorescence excitation, the 488 nm line of an argon-ion laser and the […] line of a helium-neon laser with appropriate beam splitters and barrier filters were used for FITC and Alexa respectively. Superimposed images of FITC- and Alexa-stained samples were created by overlaying coincident views. All measurements were performed on living, non-fixed cells.\nHuman malignant LN18 and U373 glioma cells were cultivated in four-well plates (NUNC, Wiesbaden, Germany) (about 300,000 cells per well) as described under 1.5. […] The cells were also coincubated either with CIBA, FIBA or TBPI as well as the NLS-FITC conjugate 3 (each 260 μM). As a control cells were used which were only incubated either with CIBA, FIBA or TBPI (260 μM in PBS) alone. After the incubation the cells were washed three times with PBS and in the following again incubated in Ready Mix Medium. The FITC-labelled conjugates and the Alexa-Annexin for the detection of phosphatidylserine as a signal of the cell death were localized with the confocal laser microscopy (CLSM) as in 1.6.1. All measurements were performed on living cells."}},
  "note": "“Also recorded” adds a separate entry of the source.",
  "data": [
    {"smiles": "O=C(O)c1cc(I)cc(I)c1I", "note": "[TIBA, 2,3,5-triiodobenzoic acid, reference compound]", "values": [
      {"measurement": "solubility in pure PBS", "setting": "[1]", "result": "insolubility"},
      {"measurement": "solubility in water", "setting": "[2]", "result": "does not dissolve in water"},
      {"measurement": "CT signal density of cell pellets", "setting": "[3]", "result": "only low signal density values; also recorded: did not result in any increase in signal density"},
      {"measurement": "binding of annexin-V-Alexa 568 reagent (phosphatidyl serine) / cytotoxic effects", "setting": "[4]", "result": "did not result in binding; also recorded: did not appear to produce any cytotoxic effects"}
    ]}
  ]
}
